Results taken from patent US10526314B2, “Hydroxyalkyl-substituted heteroaryltriazole derivatives and uses thereof” (BAYER AKTIENGESELLSCHAFT, priority 2016, dated 2020).

Legend:
human V2 receptor = biological target: T1, human V2 receptor (Homo sapiens, UniProt P30518); experiment: Cellular in vitro assay for determining vasopressin receptor activity (V2, CRE-luciferase); format: cell-based; conditions: CHO cell line transfected with human V2 receptor; [Arg8]-vasopressin at EC50 concentration; read-out: IC50 hV2
T1 construct: expressed in transfected cells; host or cells: CHO K1 (ATCC) expressing firefly luciferase under a CRE-responsive promoter
T1 sequence (P30518 whole entry): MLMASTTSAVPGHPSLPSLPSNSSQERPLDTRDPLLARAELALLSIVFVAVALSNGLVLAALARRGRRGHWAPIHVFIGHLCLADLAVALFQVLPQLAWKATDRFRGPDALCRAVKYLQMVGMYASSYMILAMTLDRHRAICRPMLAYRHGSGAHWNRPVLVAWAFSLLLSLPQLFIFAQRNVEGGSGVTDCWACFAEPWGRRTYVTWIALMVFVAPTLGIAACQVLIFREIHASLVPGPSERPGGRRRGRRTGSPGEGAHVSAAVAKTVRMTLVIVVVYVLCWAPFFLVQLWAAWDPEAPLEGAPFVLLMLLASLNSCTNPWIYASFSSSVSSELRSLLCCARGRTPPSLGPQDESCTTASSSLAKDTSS
Procedure: (§1) B-1. Cellular In Vitro Assay for Determining Vasopressin Receptor Activity
(§2) The identification of agonists and antagonists of the V1a and V2 vasopressin receptors from humans, rats and dogs as well as the quantification of the activity of the compounds of the invention is carried out using recombinant cell lines. These cell lines originally derive from a hamster's ovary epithelial cell (Chinese Hamster Ovary, CHO K1, ATCC: American Type Culture Collection, Manassas, Va. 20108, USA). The test cell lines constitutively express the human, rat or dog V1a or V2 receptors. In case of the Gαq-coupled V1a receptors, cells are also stably transfected with a modified form of the calcium-sensitive photoproteins aequorin (human and rat V1a) or obelin (dog V1a), which, after reconstitution with the cofactor coelenterazine, emit light when there are increases in free calcium concentrations [Rizzuto R, Simpson A W, Brini M, Pozzan T, Nature 358, 325-327 (1992); Illarionov B A, Bondar V S, Illarionova V A, Vysotski E S, Gene 153 (2), 273-274 (1995)]. The resulting vasopressin receptor cells react to stimulation of the recombinantly expressed V1a receptors by intracellular release of calcium ions, which can be quantified by the resulting photoprotein luminescence. The Gs-coupled V2 receptors are stably transfected into cell lines expressing the gene for firefly luciferase under control of a CRE-responsible promoter. Activation of V2 receptors induces the activation of the CRE-responsive promoter via cAMP increase, thereby inducing the expression of firefly luciferase. The light emitted by photoproteins of V1a cell lines as well as the light emitted by firefly luciferase of V2 cell lines corresponds to the activation or inhibition of the respective vasopressin receptor. The bioluminescence of the cell lines is detected using a suitable luminometer [Milligan G, Marshall F, Rees S, Trends in Pharmacological Sciences 17, 235-237 (1996)].
Vasopressin V2 Receptor Cell Lines:
On the day before the assay, the cells are plated out in culture medium (DMEM/F12, 2% FCS, 2 mM glutamine, 10 mM HEPES) in 384-well microtiter plates and kept in a cell incubator (96% humidity, 5% v/v CO2, 37° C.). On the day of the assay, test compounds in various concentrations and the agonist [Arg^8]-vasopressin at EC50 concentration are added together to the wells, and plates are incubated for 3 hours in a cell incubator. Upon addition of the cell lysis reagent Triton™ and the substrate luciferin, luminescence of firefly luciferase is measured in a luminometer.
(§3) Table 1A below lists individual IC50 values for the compounds of the invention (including racemic mixtures as well as separated enantiomers) that were obtained from cell lines transfected with the human V1a or V2 receptor: […]

human V1a receptor = biological target: T2, human V1a receptor (Homo sapiens, UniProt P37288); experiment: Cellular in vitro assay for determining vasopressin receptor activity (V1a, aequorin luminescence); format: cell-based; conditions: for IC50: CHO cell line transfected with human V1a receptor, [Arg8]-vasopressin at EC50 concentration, read-out: IC50 hV1a; for ratio IC50 hV2/hV1a: selectivity ratio IC50 hV2 / IC50 hV1a
T2 construct: expressed in transfected cells; host or cells: CHO K1 (ATCC), also stably transfected with a modified aequorin
T2 sequence (P37288 whole entry): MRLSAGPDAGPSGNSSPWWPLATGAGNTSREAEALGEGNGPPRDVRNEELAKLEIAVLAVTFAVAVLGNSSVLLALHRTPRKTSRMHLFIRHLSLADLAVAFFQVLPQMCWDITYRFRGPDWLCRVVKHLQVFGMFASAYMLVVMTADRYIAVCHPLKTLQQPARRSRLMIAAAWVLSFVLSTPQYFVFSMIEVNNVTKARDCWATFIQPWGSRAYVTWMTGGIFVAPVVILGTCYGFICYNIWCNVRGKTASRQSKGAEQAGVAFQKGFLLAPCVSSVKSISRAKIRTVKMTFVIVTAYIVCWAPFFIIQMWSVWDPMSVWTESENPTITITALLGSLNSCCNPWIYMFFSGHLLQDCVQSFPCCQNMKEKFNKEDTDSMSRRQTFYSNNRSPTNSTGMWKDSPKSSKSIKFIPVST
Procedure: as §1, §2
Vasopressin V1a Receptor Cell Lines:
On the day before the assay, the cells are plated out in culture medium (DMEM/F12, 2% FCS, 2 mM glutamine, 10 mM HEPES, 5 μg/ml coelenterazine) in 384-well microtiter plates and kept in a cell incubator (96% humidity, 5% v/v CO2, 37° C.). On the day of the assay, test compounds in various concentrations are placed for 10 minutes in the wells of the microtiter plate before the agonist [Arg^8]-vasopressin at EC50 concentration is added. The resulting light signal is measured immediately in a luminometer.
as §3

Row | IC50 (human V2 receptor) [nM] | IC50 (human V1a receptor) [nM] | ratio IC50 hV2/hV1a (human V1a receptor) | SMILES
1 | 773 | 49.1 | 15.8 | CC(O)c1nc(Cn2nc(-c3ccc(Cl)cc3)n(C[C@H](O)C(F)(F)F)c2=O)nn1-c1cccnc1 (mixture of isomers) [Example 24]
2 | 18.7 | 12.3 | 1.5 | CC(O)c1nc(Cn2nc(-c3ccc(Cl)cc3)n(C[C@H](O)C(F)(F)F)c2=O)nn1-c1cncc(Cl)c1 (mixture of isomers) [Example 27, 5-(4-Chlorophenyl)-2-({1-(5-chloropyridin-3-yl)-5-(1hydroxyethyl)-1H-1,2,4triazol-3-yl}methyl)-4-[(2S)-3,3,3-trifluoro-2-hydroxypropyl]-2,4-dihydro-3H-1,2,4-triazol-3-one]
3 | 240 | 90.8 | 2.6 | CC(O)c1nc(Cn2nc(-c3ccc(Cl)cc3)n(C[C@H](O)C(F)(F)F)c2=O)nn1-c1cccnc1 (single isomer, unassigned) [Example 25]
4 | 325 | 34.3 | 9.5 | CC(O)c1nc(Cn2nc(-c3ccc(Cl)cc3)n(C[C@H](O)C(F)(F)F)c2=O)nn1-c1cccnc1 (single isomer, unassigned) [Example 26]
5 | 51.7 | 20.6 | 2.5 | CC(O)c1nc(Cn2nc(-c3ccc(Cl)cc3)n(C[C@H](O)C(F)(F)F)c2=O)nn1-c1cncc(Cl)c1 (single isomer, unassigned) [Example 28]
6 | 15.2 | 7.71 | 2.0 | CC(O)c1nc(Cn2nc(-c3ccc(Cl)cc3)n(C[C@H](O)C(F)(F)F)c2=O)nn1-c1cncc(Cl)c1 (single isomer, unassigned) [Example 29]
7 | 16 | 0.49 | 32.6 | C[C@@H](O)c1nc(Cn2nc(-c3ccc(Cl)cc3)n(C[C@H](O)C(F)(F)F)c2=O)nn1-c1cnccc1Cl [Example 1, 5-(4-Chlorophenyl)-2-({1-(4-chloropyridin-3-yl)-5-[(1R)-1-hydroxyethyl]-1H-1,2,4-triazol-3-yl}methyl)-4-[(2S)-3,3,3-trifluoro-2-hydroxypropyl]-2,4-dihydro-3H-1,2,4-triazol-3-one]
8 | 5.65 | 0.53 | 10.7 | C[C@H](O)c1nc(Cn2nc(-c3ccc(Cl)cc3)n(C[C@H](O)C(F)(F)F)c2=O)nn1-c1cnccc1Cl [Example 2, 5-(4-Chlorophenyl)-2-({1-(4-chloropyridin-3yl)-5-[(1S)-1-hydroxyethyl]-1H-1,2,4-triazol-3-yl}methyl)-4-[(2S)-3,3,3-trifluoro-2-hydroxypropyl]-2,4-dihydro-3H-1,2,4-triazol-3-one]
9 | 8.07 | 0.57 | 14.2 | C[C@H](O)c1nc(Cn2nc(-c3ccc(Cl)cc3)n(C[C@H](O)C(F)(F)F)c2=O)nn1-c1ncccc1Cl [Example 3, 5-(4-Chlorophenyl)-2-({1-(3-chloropyridin-2-yl)-5-[(1S)-1-hydroxyethyl]-1H-1,2,4-triazol-3-yl}methyl)-4-[(2S)-3,3,3-trifluoro-2-hydroxypropyl]-2,4-dihydro-3H-1,2,4-triazol-3-one]
10 | 8.65 | 1.3 | 6.7 | C[C@@H](O)c1nc(Cn2nc(-c3ccc(Cl)cc3)n(C[C@H](O)C(F)(F)F)c2=O)nn1-c1c(Cl)cncc1Cl [Example 4, 5-(4-Chlorophenyl)-2-({1-(3,5-dichloropyridin-4-yl)-5-[(1R)-1-hydroxyethyl]-1H-1,2,4-triazol-3-yl}methyl)-4-[(2S)-3,3,3-trifluoro-2-hydroxypropyl]-2,4-dihydro-3H-1,2,4-triazol-3-one]
11 | 27 | 1.35 | 20.0 | C[C@@H](O)c1nc(Cn2nc(-c3ccc(Cl)cc3)n(C[C@H](O)C(F)(F)F)c2=O)nn1-c1ncccc1Cl [Example 5, 5-(4-Chlorophenyl)-2-({1-(3-chloropyridin-2-yl)-5-[(1R)-1-hydroxyethyl]-1H-1,2,4-triazol-3-yl}methyl)-4-[(2S)-3,3,3-trifluoro-2-hydroxypropyl]-2,4-dihydro-3H-1,2,4-triazol-3-one]
12 | 40.3 | 2.35 | 17.2 | C[C@@H](O)c1nc(Cn2nc(-c3ccc(Cl)cc3)n(C[C@H](O)C(F)(F)F)c2=O)nn1-c1ccncc1Cl [Example 6, 5-(4-Chlorophenyl)-2-({1-(3-chloropyridin-4-yl)-5-[(1R)-1-hydroxyethyl]-1H-1,2,4-triazol-3-yl}methyl)-4-[(2S)-3,3,3-trifluoro-2-hydroxypropyl]-2,4-dihydro-3H-1,2,4-triazol-3-one]
13 | 16 | 3 | 5.3 | C[C@H](O)c1nc(Cn2nc(-c3ccc(Cl)cc3)n(C[C@H](O)C(F)(F)F)c2=O)nn1-c1ccncc1Cl [Example 7, 5-(4-Chlorophenyl)-2-({1-(3-chloropyridin-4-yl)-5-[(1S)-1-hydroxyethyl]-1H-1,2,4-triazol-3-yl}methyl)-4-[(2S)-3,3,3-trifluoro-2-hydroxypropyl]-2,4-dihydro-3H-1,2,4-triazol-3-one]
14 | 9.4 | 3.65 | 2.6 | COc1cccnc1-n1nc(Cn2nc(-c3ccc(Cl)cc3)n(C[C@H](O)C(F)(F)F)c2=O)nc1[C@H](C)O [Example 8, 5-(4-Chlorophenyl)-2-({5-[(1S)-1-hydroxyethyl]-1-(3-methoxypyridin-2-yl)-1H-1,2,4-triazol-3-yl}methyl)-4-[(2S)-3,3,3-trifluoro-2-hydroxypropyl]-2,4-dihydro-3H-1,2,4-triazol-3-one]
15 | 24.5 | 4.13 | 5.9 | C[C@H](O)c1nc(Cn2nc(-c3ccc(Cl)cc3)n(C[C@H](O)C(F)(F)F)c2=O)nn1-c1c(Cl)cncc1Cl [Example 9, 5-(4-Chlorophenyl)-2-({1-(3,5-dichloropyridin-4-yl)-5-[(1S)-1-hydroxyethyl]-1H-1,2,4-triazol-3-yl}methyl)-4-[(2S)-3,3,3-trifluoro-2-hydroxypropyl]-2,4-dihydro-3H-1,2,4-triazol-3-one]
16 | 105 | 4.25 | 24.7 | C[C@H](O)c1nc(Cn2nc(-c3ccc(Cl)cc3)n(C[C@H](O)C(F)(F)F)c2=O)nn1-c1nccs1 [Example 10, 5-(4-Chlorophenyl)-2-({5-[(1S)-1-hydroxyethyl]-1-(1,3-thiazol-2-yl)-1H-1,2,4-triazol-3-yl}methyl)-4-[(2S)-3,3,3-trifluoro-2-hydroxypropyl]-2,4-dihydro-3H-1,2,4-triazol-3-one]
17 | 22.7 | 5.6 | 4.1 | C[C@H](O)c1nc(Cn2nc(-c3ccc(Cl)cc3)n(C[C@H](O)C(F)(F)F)c2=O)nn1-c1ncccc1F [Example 11, 5-(4-Chlorophenyl)-2-({1-(3-fluoropyridin-2-yl)-5-[(1S)-1-hydroxyethyl]-1H-1,2,4-triazol-3-yl}methyl)-4-[(2S)-3,3,3-trifluoro-2-hydroxypropyl]-2,4-dihydro-3H-1,2,4-triazol-3-one]
